# Assay results from ChEMBL document CHEMBL5104090, “Recent advances in the medicinal chemistry of carbonic anhydrase inhibitors” (Eur J Med Chem, 2021).
# pIC50, pKi: −log10 of the molar value.
# Experiments:
# Carbonic anhydrase 12 [1] = target: T1, Carbonic anhydrase 12 (Homo sapiens, UniProt O43570); details: time 6.0 hrs
# Carbonic anhydrase 12 [2] = target: T1, Carbonic anhydrase 12
# HT-1080 = test: cells; type: functional, cell-based; details: Homo sapiens, HT-1080, 48 h
# Description: Cytotoxicity against human HT-1080 cells assessed as cell growth inhibition measured after 48 hrs by MTT assay
# SH-SY5Y = test: cells; type: functional, cell-based; details: Homo sapiens, 48 h
# Description: Cytotoxicity against human SH-SY5Y cells assessed as cell growth inhibition measured after 48 hrs by MTT assay
# Carbonic anhydrase 9 [3] = target: T2, Carbonic anhydrase 9 (Homo sapiens, UniProt Q16790)
# MCF7 = test: cells; type: functional, cell-based; details: Homo sapiens, MCF7, 48 h
# Description: Cytotoxicity against human MCF7 cells assessed as cell growth inhibition measured after 48 hrs by MTT assay
# Carbonic anhydrase 2 [4] = target: T3, Carbonic anhydrase 2 (Homo sapiens, UniProt P00918)
# in vitro = details: human, corneal epithelial cell
# Description: Cytotoxicity against human Corneal epithelial cell assessed as cell growth inhibition at 1 % measured after 96 hrs by MTT assay relative to control
# Carbonic anhydrase 1 [5] = target: T4, Carbonic anhydrase 1 (Homo sapiens, UniProt P00915)
# Target sequence in this assay (P00915 whole entry): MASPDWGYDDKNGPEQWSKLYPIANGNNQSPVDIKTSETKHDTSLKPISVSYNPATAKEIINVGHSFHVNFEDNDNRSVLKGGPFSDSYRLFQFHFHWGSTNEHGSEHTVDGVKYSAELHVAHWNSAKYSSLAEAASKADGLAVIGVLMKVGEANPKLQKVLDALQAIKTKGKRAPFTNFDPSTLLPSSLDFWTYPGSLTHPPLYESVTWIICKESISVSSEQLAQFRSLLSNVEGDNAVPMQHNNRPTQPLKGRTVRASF
# Carbonic anhydrase 2 [6] = target: T3, Carbonic anhydrase 2; remark: listed apart in the source
# Carbonic anhydrase 2 [7] = target: T3, Carbonic anhydrase 2; remark: listed apart in the source
# Carbonic anhydrase 9 [8] = target: T2, Carbonic anhydrase 9; remark: listed apart in the source
# Carbonic anhydrase 1 [9] = target: T4, Carbonic anhydrase 1; remark: listed apart in the source
# Target sequence in this assay (P00915 whole entry): as above
# Carbonic anhydrase 2 [10] = target: T3, Carbonic anhydrase 2; remark: listed apart in the source
# Carbonic anhydrase 2 [11] = target: T3, Carbonic anhydrase 2; remark: listed apart in the source
# Carbonic anhydrase 1 [12] = target: T4, Carbonic anhydrase 1; remark: listed apart in the source
# Target sequence in this assay (P00915 whole entry): as above
# Carbonic anhydrase 12 [13] = target: T1, Carbonic anhydrase 12; remark: listed apart in the source
# Carbonic anhydrase 1 [14] = target: T4, Carbonic anhydrase 1; remark: listed apart in the source
# Target sequence in this assay (P00915 whole entry): as above
# Carbonic anhydrase 1 [15] = target: T4, Carbonic anhydrase 1; remark: listed apart in the source
# Target sequence in this assay (P00915 2-261 limits assumed): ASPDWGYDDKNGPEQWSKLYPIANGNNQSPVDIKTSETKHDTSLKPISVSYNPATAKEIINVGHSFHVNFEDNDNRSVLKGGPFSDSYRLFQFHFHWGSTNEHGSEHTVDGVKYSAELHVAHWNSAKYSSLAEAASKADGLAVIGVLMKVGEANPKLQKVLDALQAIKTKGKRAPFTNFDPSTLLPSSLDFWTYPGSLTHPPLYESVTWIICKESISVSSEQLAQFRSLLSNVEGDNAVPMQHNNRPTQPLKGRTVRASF
# HSC-2 = test: cells; type: functional; details: Homo sapiens, time 48 hrs
# Description: Cytotoxicity against human HSC-2 cells assessed as cell growth inhibition measured after 48 hrs by MTT assay
# HSC-4 = test: cells; type: functional; details: Homo sapiens, time 48 hrs
# Description: Cytotoxicity against human HSC-4 cells assessed as cell growth inhibition measured after 48 hrs by MTT assay
# HSC-3 = test: cells; type: functional; details: Homo sapiens, time 48 hrs
# Description: Cytotoxicity against human HSC-3 cells assessed as cell growth inhibition measured after 48 hrs by MTT assay
# Ca9-22 = test: cells; type: functional; details: Homo sapiens, time 48 hrs
# Description: Cytotoxicity against human Ca9-22 cells assessed as cell growth inhibition measured after 48 hrs by MTT assay
# Carbonic anhydrase 1 [16] = target: T4, Carbonic anhydrase 1; remark: listed apart in the source
# Target sequence in this assay (P00915 whole entry): as the sequence (P00915 whole entry) above
# Carbonic anhydrase 4 = Carbonic anhydrase 4 (Homo sapiens, UniProt P22748)
# Carbonic anhydrase 4, sequence (P22748 whole entry): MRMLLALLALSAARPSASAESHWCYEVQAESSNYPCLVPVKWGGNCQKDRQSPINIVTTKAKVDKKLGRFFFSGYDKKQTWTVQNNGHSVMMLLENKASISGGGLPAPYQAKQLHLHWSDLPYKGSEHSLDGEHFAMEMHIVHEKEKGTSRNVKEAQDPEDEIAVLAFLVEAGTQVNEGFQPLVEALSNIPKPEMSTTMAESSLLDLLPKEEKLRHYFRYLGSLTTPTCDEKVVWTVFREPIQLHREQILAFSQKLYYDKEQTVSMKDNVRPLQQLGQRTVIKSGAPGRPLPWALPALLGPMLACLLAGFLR
# Carbonic anhydrase 9 [17] = target: T2, Carbonic anhydrase 9; remark: listed apart in the source
# Carbonic anhydrase 2 [18] = target: T3, Carbonic anhydrase 2; remark: listed apart in the source
# T1 sequence (O43570 whole entry): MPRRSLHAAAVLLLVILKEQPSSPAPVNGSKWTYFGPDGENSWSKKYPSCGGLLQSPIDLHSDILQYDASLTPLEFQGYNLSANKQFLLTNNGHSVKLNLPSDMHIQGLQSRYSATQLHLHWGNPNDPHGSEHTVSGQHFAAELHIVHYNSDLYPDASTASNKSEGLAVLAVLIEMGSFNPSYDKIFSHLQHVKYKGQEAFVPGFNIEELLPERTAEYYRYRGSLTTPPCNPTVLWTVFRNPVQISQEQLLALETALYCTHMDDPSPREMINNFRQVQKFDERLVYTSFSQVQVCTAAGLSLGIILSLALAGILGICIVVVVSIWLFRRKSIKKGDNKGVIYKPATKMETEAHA
compound,measurement,setting,value
O=S1(=O)CC=Cc2cc(-n3cc(-c4ccc(C(F)(F)F)cc4)nn3)ccc2O1,Kis,Carbonic anhydrase 12 [1],0.64 µM
O=S1(=O)C=Cc2cc(-c3nnnn3-c3ccccc3)ccc2O1,pKi,Carbonic anhydrase 12 [2],8.27
same,pIC50,HT-1080,5.10
same,pIC50,SH-SY5Y,4.74
same,pKi,Carbonic anhydrase 9 [3],8.16
same,pIC50,MCF7,5.74
NS(=O)(=O)c1ccc(C(=O)N[C@@H]2O[C@H](CO)[C@@H](O)[C@H](O)[C@H]2O)cc1,pKi,Carbonic anhydrase 2 [4],11.05
NS(=O)(=O)c1ccc(C(=O)N[C@@H]2O[C@H](CO)[C@@H](O)[C@H](O)[C@@H]2O)cc1,pKi,Carbonic anhydrase 2 [4],11.05
same,"inhibition at 96 h, 1 %",in vitro,74%
Cc1ccc(C)c(-n2nc(-c3ccccc3)c(/N=N/c3ccc(Br)cc3)c2-c2ccccc2)c1,pKi,Carbonic anhydrase 1 [5],8.97
same,pKi,Carbonic anhydrase 2 [6],9.17
O=C1/C(=C\c2ccc(O)c(CN3CCN(Cc4ccccc4)CC3)c2)Cc2ccccc21,pKi,Carbonic anhydrase 2 [7],7.29
NS(=O)(=O)c1ccc(C(=O)NN2C(=O)c3cccc4cc([N+](=O)[O-])cc(c34)C2=O)cc1,Kis,Carbonic anhydrase 9 [8],3 nM
COC(=O)[C@H]1O[C@@H](O)[C@H](O)[C@@H](O)[C@@]1(O)S(=O)(=O)Nc1ccccc1C(N)=O,pIC50,Carbonic anhydrase 1 [9],5.74
same,pKi,Carbonic anhydrase 2 [4],11.05
same,"inhibition at 96 h, 1 %",in vitro,74%
NS(=O)(=O)c1ccc(CCn2c(SCC(=O)Nc3ccc(Cl)cc3)nc3ccccc3c2=O)cc1,pKi,Carbonic anhydrase 2 [10],7.60
NS(=O)(=O)c1ccc(C(=O)N[C@@H]2O[C@H](CO)[C@H](O)[C@H](O)[C@H]2O)cc1,pKi,Carbonic anhydrase 2 [4],11.05
O=C1C(=O)N(CN2CCOCC2)c2ccccc21,pKi,Carbonic anhydrase 2 [11],8.30
same,pKi,Carbonic anhydrase 1 [12],8.07
CCn1nc(-c2ccccc2)c(/N=N/c2ccc(Br)cc2)c1-c1ccccc1,pKi,Carbonic anhydrase 1 [5],8.97
same,pKi,Carbonic anhydrase 2 [6],9.17
COc1cccc(/C=C2/SC(=O)N(CC(=O)O)C2=O)c1,Kis,Carbonic anhydrase 12 [13],0.3 µM
same,pKi,Carbonic anhydrase 9 [3],< 4.00
same,pKi,Carbonic anhydrase 1 [14],< 4.00
CC(C)(C)c1ccc2c(c1)C(=O)N(NC(=O)c1ccc(S(N)(=O)=O)cc1)C2=O,Kis,Carbonic anhydrase 9 [8],3 nM
same,Kis,Carbonic anhydrase 1 [15],84.3 nM
Nc1ccc2c(c1)C=CCS(=O)(=O)O2,Kis,Carbonic anhydrase 12 [1],0.64 µM
COc1ccc(C2CC(c3ccc(Cl)cc3)=NN2c2ccc(S(N)(=O)=O)cc2)cc1OC (stereo not drawn),CC50,HSC-2,15000 nM
same,CC50,HSC-4,15000 nM
same,CC50,HSC-3,15000 nM
same,CC50,Ca9-22,15000 nM
NS(=O)(=O)c1ccc(N/C=C/C(=O)c2ccc(F)cc2)cc1,pKi,Carbonic anhydrase 1 [16],5.03
same,pKi,Carbonic anhydrase 4,8.19
same,pKi,Carbonic anhydrase 2 [10],9.32
same,pKi,Carbonic anhydrase 9 [17],9.68
COc1ccc(/C=C2/SC(=O)N(CC(=O)O)C2=O)cc1,Kis,Carbonic anhydrase 12 [13],0.3 µM
same,pKi,Carbonic anhydrase 9 [3],5.51
same,pKi,Carbonic anhydrase 1 [14],< 4.00
Brc1ccc(/N=N/c2c(-c3ccccc3)nn(-c3ccc(Br)cc3)c2-c2ccccc2)cc1,pKi,Carbonic anhydrase 1 [5],8.97
same,pKi,Carbonic anhydrase 2 [6],9.17
NS(=O)(=O)c1ccc(C(=O)NN2C(=O)c3c(Cl)c(Cl)c(Cl)c(Cl)c3C2=O)cc1,Kis,Carbonic anhydrase 9 [8],3 nM
CN1CCN(CN2C(=O)C(=O)c3ccccc32)CC1,pKi,Carbonic anhydrase 2 [11],8.30
same,pKi,Carbonic anhydrase 1 [12],8.07
NS(=O)(=O)c1ccc(C(=O)NN2C(=O)c3nccnc3C2=O)cc1,Kis,Carbonic anhydrase 1 [15],84.3 nM
CS(=O)(=O)Cc1cc(O)c(O)c(Br)c1Br,pKi,Carbonic anhydrase 2 [7],7.37
NS(=O)(=O)c1ccc(C(=O)NN2C(=O)c3c(Br)c(Br)c(Br)c(Br)c3C2=O)cc1,Kis,Carbonic anhydrase 9 [8],3 nM
NS(=O)(=O)c1ccc(C(=O)NN2C(=O)c3cc(Cl)c(Cl)cc3C2=O)cc1,Kis,Carbonic anhydrase 9 [8],3 nM
NS(=O)(=O)c1ccc(N=C2C(=O)Nc3ccccc32)cc1,pKi,Carbonic anhydrase 12 [2],7.46
same,pKi,Carbonic anhydrase 2 [18],8.52
same,pKi,Carbonic anhydrase 9 [3],7.86
Brc1ccc(NN=C2C(c3ccccc3)=NN=C2c2ccccc2)cc1,pKi,Carbonic anhydrase 1 [5],8.97
same,pKi,Carbonic anhydrase 2 [6],9.17
Cn1nc(-c2ccccc2)c(/N=N/c2ccc(Br)cc2)c1-c1ccccc1,pKi,Carbonic anhydrase 1 [5],8.97
same,pKi,Carbonic anhydrase 2 [6],9.17
NS(=O)(=O)c1ccc(C(=O)NN2C(=O)C3CC=CCC3C2=O)cc1 (stereo not drawn),Kis,Carbonic anhydrase 1 [15],84.3 nM
NS(=O)(=O)c1ccc(C(=O)NN2C(=O)c3cccc4cccc(c34)C2=O)cc1,Kis,Carbonic anhydrase 9 [8],3 nM
O=C1/C(=C\c2ccc(O)c(CN3CCN(c4ccccc4F)CC3)c2)Cc2ccccc21,pKi,Carbonic anhydrase 2 [7],7.29
